Data as given in ChEMBL document CHEMBL6178010, “XPO1-Targeting Selective Inhibitors of Transcriptional Activation Suppress Graft-versus-Host Disease” (J Med Chem, 2025).

Columns and labels:
[1] = target: Exportin-1 (Homo sapiens, UniProt O14980); assay: Inhibition of XPO1 in PMA/ionomycin-activated human Jurkat cells expressing IL-2 promoter reporter gene assessed as suppression of IL-2 transcriptional activity incubated for 6 hrs by Bright-Glo Luciferase assay; format: cell-based
[2] = test system: Jurkat; assay: Cytotoxicity against human Jurkat cells assessed as suppression of cell viability incubated for 24 hrs by CellTiter-Glo assay; format: functional, cell-based
[3] = test system: XPO1; assay: Selectivity ratio of EC50 for cytotoxicity against human Jurkat cells assessed as suppression of cell viability to EC50 for inhibition of XPO1 in PMA/ionomycin-activated human Jurkat cells expressing IL-2 promoter reporter gene assessed as suppression of IL-2 transcriptional activity; format: toxicity, cell-based; conditions: read-out: Ratio EC50
[4] = Metabolic stability in mouse liver microsome assessed as half life; format: ADME; conditions: liver microsomes
[5] = Metabolic stability in mouse liver microsome assessed as intrinsic clearance; format: ADME; conditions: liver microsomes, read-out: CLH

Chain of Exportin-1 (O14980 whole entry): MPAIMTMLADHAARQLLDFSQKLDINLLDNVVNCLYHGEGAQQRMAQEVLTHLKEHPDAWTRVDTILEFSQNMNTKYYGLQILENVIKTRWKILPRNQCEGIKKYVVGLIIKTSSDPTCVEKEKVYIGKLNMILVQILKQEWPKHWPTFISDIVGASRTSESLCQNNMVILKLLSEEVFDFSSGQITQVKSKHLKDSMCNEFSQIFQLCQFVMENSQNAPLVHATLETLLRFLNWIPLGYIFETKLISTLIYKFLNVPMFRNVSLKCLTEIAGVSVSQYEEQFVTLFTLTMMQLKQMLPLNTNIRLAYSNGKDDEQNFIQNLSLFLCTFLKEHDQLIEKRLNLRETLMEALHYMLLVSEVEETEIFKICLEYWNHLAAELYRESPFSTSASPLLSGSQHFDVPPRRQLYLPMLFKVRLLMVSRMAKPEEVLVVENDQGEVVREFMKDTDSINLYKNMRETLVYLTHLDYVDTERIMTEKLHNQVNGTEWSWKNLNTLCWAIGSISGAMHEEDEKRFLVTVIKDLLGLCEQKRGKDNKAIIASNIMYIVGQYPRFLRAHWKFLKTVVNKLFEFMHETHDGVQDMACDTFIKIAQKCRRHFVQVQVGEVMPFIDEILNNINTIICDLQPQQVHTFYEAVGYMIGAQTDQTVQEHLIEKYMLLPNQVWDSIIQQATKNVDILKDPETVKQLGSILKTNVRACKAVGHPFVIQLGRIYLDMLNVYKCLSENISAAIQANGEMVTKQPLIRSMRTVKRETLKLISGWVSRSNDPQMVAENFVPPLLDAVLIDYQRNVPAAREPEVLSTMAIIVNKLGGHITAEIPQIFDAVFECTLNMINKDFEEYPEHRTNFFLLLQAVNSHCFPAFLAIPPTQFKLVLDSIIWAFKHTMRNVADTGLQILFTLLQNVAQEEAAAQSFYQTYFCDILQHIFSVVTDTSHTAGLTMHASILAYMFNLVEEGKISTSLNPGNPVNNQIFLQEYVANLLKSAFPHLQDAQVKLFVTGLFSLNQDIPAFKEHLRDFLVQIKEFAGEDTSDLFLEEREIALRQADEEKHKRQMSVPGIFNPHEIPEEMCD

Structure (SMILES) | EC50 [1] [µM] | EC50 [2] [µM] | selectivity ratio [3] | half-life [4] [min] | microsomal CLint [5] [µL/min/mg]
CC1=CC(=O)N(Nc2nc(C3CC3)nn3cccc23)C1=O | 0.107 | 0.347 | 3.2 | – | –
CC1=CC(=O)N(Nc2ccc(C(F)(F)F)c(Cl)c2)C1=O | 0.0015 | 0.0086 | 5.7 | – | –
CC1=CC(=O)N(Nc2ccc(C(F)(F)F)c(-c3ccnn3C)n2)C1=O | 0.724 | 1.74 | 2.4 | – | –
CC1=CC(=O)N(Nc2nc(N3CCCCC3)nn3cccc23)C1=O | 0.0301 | 0.148 | 4.9 | – | –
COc1cccc2nc(-c3cccs3)nc(NN3C(=O)C=C(C)C3=O)c12 [AS-602868] | 0.0059 | 0.0302 | 5.1 | < 10 | > 139
CC1=CC(=O)N(Nc2cc(C(F)(F)F)cc(C(F)(F)F)n2)C1=O | 0.018 | 0.091 | – | – | –
CC1=CC(=O)N(Nc2ccc(C(F)(F)F)c(C3CCCC3)n2)C1=O | 0.012 | 0.034 | 2.8 | < 10 | > 139
CC1=CC(=O)N(Nc2nc(C3CCCC3)nn3cccc23)C1=O | 0.17 | 0.955 | 5.6 | – | –
CC1=CC(=O)N(Nc2ccc(C(F)(F)F)c(N3CC4(CCC4)C3)n2)C1=O | 0.013 | 0.082 | 6.3 | – | –
CC1=CC(=O)N(Nc2nc(Cl)nn3cccc23)C1=O | 0.076 | 0.813 | 10.7 | – | –
CC1=C(C)C(=O)N(Nc2nc(C(F)(F)F)nn3cccc23)C1=O | 0.963 | 0.92 | 0.96 | – | –
CNc1nc(NN2C(=O)C=C(C)C2=O)ccc1C(F)(F)F | 0.037 | 0.661 | 17.9 | – | –
CC1=CC(=O)N(N(C)c2ccc(C(F)(F)F)c(N3CC(F)(F)C3)n2)C1=O | 0.0071 | 0.047 | 6.6 | – | –
CC1=CC(=O)N(N(C)c2nc(N3CCCC(F)(F)C3)nn3cccc23)C1=O | 0.209 | 4.29 | 20.5 | – | –
CC1=CC(=O)N(Nc2ccc(C(F)(F)F)c(N3CC4CC(C4)C3)n2)C1=O | 0.0073 | 0.0381 | 5.2 | – | –
CO[C@H]1CCN(c2nc(NN3C(=O)C=C(C)C3=O)ccc2C(F)(F)F)C1 | 0.0204 | 0.492 | 24.1 | – | –
CC1=CC(=O)N(Nc2nc(-c3ccno3)nn3cccc23)C1=O | 0.55 | 5.62 | 10.2 | – | –
CC1=CC(=O)N(Nc2ccc(C(F)(F)F)c(N3CC(F)(F)C3)n2)C1=O | 0.023 | 0.138 | 6 | < 10 | > 139
CC1=CC(=O)N(N(C)c2ccc(C(F)(F)F)c(N3CCCC(F)(F)C3)n2)C1=O | 0.011 | 0.0709 | 6.4 | – | –
CC1=CC(=O)N(Nc2ccc(C(F)(F)F)c(Cl)n2)C1=O | – | – | – | 26.1 | 53
CC1=CC(=O)N(Nc2cc(N3CC(F)(F)C3)c(C(F)(F)F)cn2)C1=O | 0.06 | 0.77 | 12.8 | – | –
CC1=CC(=O)N(Nc2ccc(C(F)(F)F)c(N3CCCC3)n2)C1=O | 0.002 | 0.092 | 46 | < 10 | > 139
CC1=CC(=O)N(Nc2cc(C(F)(F)F)c(C(F)(F)F)cn2)C1=O | 0.0094 | 0.19 | 20.2 | – | –
CO[C@@H]1CCN(c2nc(NN3C(=O)C=C(C)C3=O)ccc2C(F)(F)F)C1 | 0.025 | 0.4 | 16 | – | –

Structure (SMILES) | EC50 [1] [µM] | EC50 [2] [µM] | selectivity ratio [3] | half-life [4] [min] | microsomal CLint [5] [µL/min/mg]
CC1=CC(=O)N(Nc2ccc(C(F)(F)F)c(N3CCCC3=O)n2)C1=O | 1.63 | 4.79 | 2.9 | – | –
CC1=CC(=O)N(Nc2ncc(C(F)(F)F)c(Cl)n2)C1=O | 0.156 | 0.338 | 2.2 | 19.9 | 70
CC1=CC(=O)N(Nc2nc(N(C)CC3CC3)nn3cccc23)C1=O | 0.0604 | 0.329 | 5.4 | 2.6 | 528
CC1=CC(=O)N(Nc2nc(N3CC(F)(F)C3)nn3cccc23)C1=O | 0.058 | 0.447 | 7.7 | – | –
CN(c1ccc(C(F)(F)F)c(N2CC(F)(F)C2)n1)N1CC=CC1=O | 0.046 | 0.082 | 1.8 | – | –
CC1=CC(=O)N(Nc2nc(-c3cccs3)nn3cccc23)C1=O | 0.0447 | 0.17 | 3.8 | – | –
CC1=CC(=O)N(Nc2ccc(C(F)(F)F)c(-n3ccnc3)n2)C1=O | 0.447 | 1.9 | 4.2 | – | –
CC1=CC(=O)N(Nc2nc(Cl)c(C(F)(F)F)cc2F)C1=O | 0.009 | 0.03 | 3.3 | 11.4 | 121
CC1=CC(=O)N(Nc2nc(-c3ccccc3)nn3cccc23)C1=O | 0.0662 | 0.41 | 6.2 | 75 | 19
CC1=CC(=O)N(N(C)c2nc(N3CCCCC3)nn3cccc23)C1=O | 0.0615 | 0.386 | 6.3 | – | –
CC1=CC(=O)N(N(C)c2ccc(C(F)(F)F)c(N3CCCCCC3)n2)C1=O | 0.0025 | 0.0359 | 14.4 | – | –
CC1=CC(=O)N(Nc2ccc(F)c(N3CC(F)(F)C3)n2)C1=O | 0.04 | 0.232 | 5.8 | – | –
CC1=CC(=O)N(Nc2nc(N3CCCC(F)(F)C3)nn3cccc23)C1=O | 0.222 | 0.832 | 3.7 | – | –
CC1=CC(=O)N(N(C)c2ccc(C(F)(F)F)c(N3CCCCC3)n2)C1=O | 0.0053 | 0.066 | 12.5 | – | –
O=C(Nc1cc(C(F)(F)F)cc(C(F)(F)F)c1)c1cnc(Cl)nc1C(F)(F)F | – | – | – | < 10 | > 139
CC1=CC(=O)N(Nc2nc(N(C)C3CCCC3)nn3cccc23)C1=O | 0.0802 | 0.423 | 5.3 | – | –
CC1=CC(=O)N(N(C)c2nc(N(C)C3CCCC3)nn3cccc23)C1=O | 0.0957 | 0.418 | 4.4 | – | –
CC1=CC(=O)N(N(C)c2ccc(C(F)(F)F)c(N3CCC(F)(F)CC3)n2)C1=O | 0.0097 | 0.075 | 7.7 | – | –
CC1=CC(=O)N(Nc2ccc3cn[nH]c3n2)C1=O | 1.82 | 6.31 | 3.5 | – | –
CC1=CC(=O)N(Nc2nc(-c3ccnn3C)nn3cccc23)C1=O | 0.251 | 1.32 | 5.3 | – | –
CC1=CC(=O)N(N(C)c2nc(N3CC(F)(F)C3)nn3cccc23)C1=O | 0.25 | 2.25 | 9 | – | –
CC1=CC(=O)N(Nc2cc(C(F)(F)F)cc(N3CCCC3)n2)C1=O | 0.0047 | 0.026 | 5.5 | – | –
COCC#Cc1cc(NN2C(=O)C=C(C)C2=O)cc(C(F)(F)F)c1 | 0.061 | 0.696 | 11.4 | – | –
